According to PubChem BioAssay AID250 (DTP/NCI, 2004):
“And” between values parts separate entries of the source, which are not always exact repeats. Identical values can stand only once. Inconclusive results and toxic doses are left out.

Tested on: BDF1 mice, L1210 leukemia sc, survival T/C
Assay: NCI In Vivo Anticancer Drug Screen. Data for tumor model L1210 Leukemia (subcutaneous) in B6D2F1 (BDF1) mice
Settings: endpoint: median survival time, higher = longer survival
Method in brief: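 Read-out: T/C ratio, i.e. survival or tumor size in treated mice over that in vehicle-treated controls, from mice bearing transplantable tumors.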

O=C(Nc1ccc(C2=NCCN2)cc1)c1ccc(C(=O)Nc2ccc(C3=NCCN3)cc2)c(Cl)c1
T/C (dose: 0.19 mg/kg/injection, schedule: Q01DX Z (iv), vehicle: water): 100 % of control | T/C (dose: 0.38 mg/kg/injection, schedule: Q01DX Z (iv), vehicle: water): 100 % of control | T/C (dose: 0.75 mg/kg/injection, schedule: Q01DX Z (iv), vehicle: water): 90 % of control | T/C (dose: 1.3 mg/kg/injection, schedule: Q01DX Z (ip), vehicle: water): 95 % of control | T/C (dose: 1.5 mg/kg/injection, schedule: Q01DX Z (iv), vehicle: water): 95 % of control | T/C (dose: 2.16 mg/kg/injection, schedule: Q01DX Z (ip), vehicle: water): 100 % of control | T/C (dose: 2.16 mg/kg/injection, schedule: Q01DX Z (sc), vehicle: water): 95 % of control | T/C (dose: 2.5 mg/kg/injection, schedule: Q01DX Z (sc), vehicle: methylcellulose (MC)): 111 % of control | T/C (dose: 3.0 mg/kg/injection, schedule: Q01DX Z (ip), vehicle: water): 100 % of control | T/C (dose: 3.0 mg/kg/injection, schedule: Q01DX Z (iv), vehicle: water): 100 % of control | T/C (dose: 3.0 mg/kg/injection, schedule: Q01DX Z (sc), vehicle: saline): 100 % of control and 104 % of control | T/C (dose: 3.6 mg/kg/injection, schedule: Q01DX Z (ip), vehicle: water): 90 % of control | T/C (dose: 3.6 mg/kg/injection, schedule: Q01DX Z (sc), vehicle: water): 100 % of control | T/C (dose: 5.0 mg/kg/injection, schedule: Q01DX Z (ip), vehicle: water): 100 % of control | T/C (dose: 5.0 mg/kg/injection, schedule: Q01DX Z (sc), vehicle: methylcellulose (MC)): 116 % of control | T/C (dose: 5.0 mg/kg/injection, schedule: Q01DX Z (sc), vehicle: saline): 100 % of control | T/C (dose: 5.0 mg/kg/injection, schedule: Q01DX Z (sc), vehicle: water): 110 % of control and 111 % of control | T/C (dose: 6.0 mg/kg/injection, schedule: Q01DX Z (ip), vehicle: water): 95 % of control | T/C (dose: 6.0 mg/kg/injection, schedule: Q01DX Z (iv), vehicle: water): 100 % of control | T/C (dose: 6.0 mg/kg/injection, schedule: Q01DX Z (sc), vehicle: water): 100 % of control | T/C (dose: 8.4 mg/kg/injection, schedule: Q01DX Z (ip), vehicle: water): 160 % of control | T/C (dose: 8.4 mg/kg/injection, schedule: Q01DX Z (sc), vehicle: saline): 109 % of control and 110 % of control and 122 % of control | T/C (dose: 8.4 mg/kg/injection, schedule: Q01DX Z (sc), vehicle: water): 170 % of control | T/C (dose: 10.0 mg/kg/injection, schedule: Q01DX Z (ip), vehicle: water): 105 % of control | T/C (dose: 10.0 mg/kg/injection, schedule: Q01DX Z (sc), vehicle: methylcellulose (MC)): 244 % of control | T/C (dose: 10.0 mg/kg/injection, schedule: Q01DX Z (sc), vehicle: water): 120 % of control and 233 % of control | T/C (dose: 12.0 mg/kg/injection, schedule: Q01DX Z (sc), vehicle: water): 181 % of control | T/C (dose: 14.0 mg/kg/injection, schedule: Q01DX Z (ip), vehicle: water): 160 % of control | T/C (dose: 14.0 mg/kg/injection, schedule: Q01DX Z (sc), vehicle: saline): 210 % of control | T/C (dose: 14.0 mg/kg/injection, schedule: Q01DX Z (sc), vehicle: water): 190 % of control and 170 % of control | T/C (dose: 14.0 mg/kg/injection, schedule: Q02DX Z (sc), vehicle: saline): 100 % of control | T/C (dose: 17.0 mg/kg/injection, schedule: Q01DX001 (ip), vehicle: water): 100 % of control | T/C (dose: 17.0 mg/kg/injection, schedule: Q01DX Z (sc), vehicle: water): 210 % of control | T/C (dose: 20.0 mg/kg/injection, schedule: Q01DX Z (sc), vehicle: methylcellulose (MC)): 244 % of control | T/C (dose: 20.0 mg/kg/injection, schedule: Q01DX Z (sc), vehicle: water): 244 % of control | T/C (dose: 23.0 mg/kg/injection, schedule: Q01DX Z (ip), vehicle: water): 180 % of control | T/C (dose: 23.0 mg/kg/injection, schedule: Q01DX Z (sc), vehicle: other): 210 % of control | T/C (dose: 23.0 mg/kg/injection, schedule: Q01DX Z (sc), vehicle: saline): 195 % of control and 200 % of control | T/C (dose: 23.0 mg/kg/injection, schedule: Q01DX Z (sc), vehicle: water): 210 % of control and 240 % of control and 170 % of control | T/C (dose: 23.0 mg/kg/injection, schedule: Q02DX Z (sc), vehicle: saline): 110 % of control | T/C (dose: 23.0 mg/kg/injection, schedule: Q## X Z (sc), vehicle: saline): 110 % of control
